Laboratory results: patent US20040121316A1 (priority 2002, published 2004)
Read-outs that look alike come from different tables or passages of the source.

How the values were obtained:
[1] = system: mutant HIV-1 I84V/L90M; test: Resistance Evaluation, I84V/L90M fold change; type: cell-based
[2] = in vitro; conditions: human
[3] = system: HIV-1 48V54V82A; test: microbe, parasite or virus in culture; type: cell-based
[4] = target: 84V90M HIV protease (Human immunodeficiency virus type 1 group M subtype B, UniProt P04585, I572V/L578M); test: biochemical; set-up: species or system HIV-1
[5] = system: HIV-1 46I50V; test: microbe, parasite or virus in culture; type: cell-based
[6] = system: HIV-1 30N82I88D; test: microbe, parasite or virus in culture; type: cell-based
[7] = system: HIV-1 48V82A90M; test: microbe, parasite or virus in culture; type: cell-based
[8] = system: HIV-1 84V90M; test: microbe, parasite or virus in culture; type: cell-based
[9] = system: HIV-1 48V54V82S; test: microbe, parasite or virus in culture; type: cell-based
[10] = target: T1, recombinant HIV-1 protease (Human immunodeficiency virus type 1 group M subtype B, UniProt P04585); test: biochemical
T1 construct: Enzyme: recombinant HIV-1 protease expressed in E.Coli; purchased Bachem California, Inc. H-9040; host or cells: E. coli

[11] = system: WT HIV-1; test: microbe, parasite or virus in culture; type: cell-based
[12] = target: T2, WT HIV protease (Human immunodeficiency virus type 1 group M subtype B, UniProt P04585); test: biochemical; set-up: species or system HIV-1
T2 construct: synthetic hexapeptide substrate cleavage by HIV-1 protease

[13] = system: wild-type HIV-1 strain IIIB; test: microbe, parasite or virus in culture; type: cell-based; conditions: Human immunodeficiency virus 1, IIIB
[14] = system: recombinant HIV-1 strains with resistance mutations in the protease gene; test: Cross-Resistance Profile Assay, whole panel; type: cell-based; conditions: {}
[15] = Human immunodeficiency virus 1, read-out: Cell-based assay (MT-4) EC50/nM 48V54V82A
[16] = Human immunodeficiency virus 1, read-out: Cell-based assay (MT-4) EC50/nM 46I50V
[17] = Human immunodeficiency virus 1, read-out: Cell-based assay (MT-4) EC50/nM 30N82I88D
[18] = Human immunodeficiency virus 1, read-out: Cell-based assay (MT-4) EC50/nM 48V82A90M
[19] = Human immunodeficiency virus 1, read-out: Cell-based assay (MT-4) EC50/nM 84V90M
[20] = Human immunodeficiency virus 1, read-out: Cell-based assay (MT-4) EC50/nM 48V54V82S
[21] = MT-4, 48V54V82A, read-out: Cell-based assay (MT-4) EC50/nM 48V54V82A
[22] = Enzymatic assay, 84V90M, read-out: 84V90M IC50/nM
[23] = MT-4, 46I50V, read-out: Cell-based assay (MT-4) EC50/nM 46I50V
[24] = MT-4, 30N82I88D, read-out: Cell-based assay (MT-4) EC50/nM 30N82I88D
[25] = read-out: Cell-based assay (MT-4) EC50/nM WT
[26] = MT-4, 84V90M, read-out: Cell-based assay (MT-4) EC50/nM 84V90M
[27] = MT2, 120 h, read-out: Anti-HIV-1 Cell Culture Activity EC50
[28] = MT-4, 48V82A90M, read-out: Cell-based assay (MT-4) EC50/nM 48V82A90M
[29] = MT-4, 48V54V82S, read-out: Cell-based assay (MT-4) EC50/nM 48V54V82S
[30] = EC50 of mutant I84V/L90M relative to wild type, class symbols
[31] = Human immunodeficiency virus 1, read-out: Cell-based assay (MT-4) EC50/nM WT
[32] = Human immunodeficiency virus 1, MT-4, 84V90M, read-out: Cell-based assay (MT-4) EC50/nM 84V90M

## CC(C)CN(CC(O)C(Cc1ccc(OCP(=O)(OCc2ccccc2)OCc2ccccc2)cc1)NC(=O)OC1COC2OCCC12)S(=O)(=O)c1ccc(OC(F)(F)F)cc1 (centres unmarked)
[1]; mutant I84V/L90M vs wild type
  I84V/L90M fold change: + (>3 to ≦10)
[2]
  CC50: 5000 to 50000 nM

## CCOP(=O)(COc1ccc(CC2C(O)C(O)C(Cc3ccccc3)N(Cc3ccccc3)C(=O)N2Cc2ccccc2)cc1)OCC (centres unmarked)
[3]; [15]
  EC50: 1440 nM
[4]
  IC50: 48 nM
[5]; [16]
  EC50: 589 nM
[6]; [17]
  EC50: 293 nM
[7]; [18]
  EC50: 3290 nM
[8]; [19]
  EC50: 2460 nM
[9]; [20]
  EC50: 1900 nM

## Nc1n[nH]c2ccc(CN3C(=O)N(CCCCO)C(Cc4ccccc4)C(O)C(O)C3Cc3ccccc3)cc12 (centres unmarked) [CH2OH]
[3]; [21]
  EC50: 413 nM
[10]; read-out: Ki
  Ki: 0.017 nM
[4]; [22]
  IC50: 31 nM
[5]; [23]
  EC50: 524 nM
[6]; [24]
  EC50: 486 nM
[11]; [25]
  EC50: 253 nM
[8]; [26]
  EC50: 1110 nM
[12]; read-out: WT IC50/nM
  IC50: 2.8 nM

## CCOP(=O)(COc1ccc(C[C@H](NC(=O)O[C@H]2CO[C@H]3OCC[C@H]32)[C@H](O)CN(CC(C)C)S(=O)(=O)c2ccc(OC)cc2)cc1)OCC [Compound 13]
[13]; [27]
  EC50: 3 nM
[2]
  CC50: 50000 nM

## CCCCN1C(=O)N(Cc2ccc3[nH]nc(N)c3c2)C(Cc2ccccc2)C(O)C(O)C1Cc1ccccc1 (centres unmarked) [DMP-851]
[3]; [21]
  EC50: 33 nM
[5]; [23]
  EC50: 17 nM
[6]; [24]
  EC50: 69 nM
[11]; [25]
  EC50: 54 nM
[7]; [28]
  EC50: 22 nM
[9]; [29]
  EC50: 30 nM

## COc1ccc(S(=O)(=O)N(CC(C)C)C[C@@H](O)[C@H](Cc2ccccc2)NC(=O)O[C@H]2CO[C@H]3OCC[C@H]32)cc1 [Example 94-003, reference compound]
[13]
  EC50: < 50 nM
[13]; [27]
  EC50: 1.4 ± 0.3 nM
[14]
  Total No. of Resistant Viruses: 3
[2]
  CC50: 5000 to 50000 nM

## CCOP(=O)(COc1ccc(CC2C(O)C(O)C(Cc3ccccc3)N(Cc3cccc(N)c3)C(=O)N2Cc2cccc(N)c2)cc1)OCC (centres unmarked) [H, Ph-mNH2, OCH2PO3Et2]
[3]; [15]
  EC50: 168 nM
[5]; [16]
  EC50: 46 nM
[6]; [17]
  EC50: 16 nM
[7]; [18]
  EC50: 74 nM
[8]; [19]
  EC50: 328 nM
[9]; [20]
  EC50: 146 nM

## CCOP(=O)(COc1ccc(CC2C(O)C(O)C(Cc3ccc(OC)cc3)N(Cc3cccc(N)c3)C(=O)N2Cc2cccc(N)c2)cc1)OCC (centres unmarked) [OCH3, Ph-mNH2, OCH2PO3Et2]
[3]; [15]
  EC50: 202 nM
[4]
  IC50: 56 nM
[5]; [16]
  EC50: 36 nM
[6]; [17]
  EC50: 18 nM
[7]; [18]
  EC50: 102 nM
[8]; [19]
  EC50: 535 nM
[9]; [20]
  EC50: 117 nM

## CCOP(=O)(COc1ccc(CC2C(O)C(O)C(Cc3ccc(OC)cc3)N(Cc3ccc(O)cc3)C(=O)N2Cc2ccc(O)cc2)cc1)OCC (centres unmarked) [OCH3, Ph-pOH, OCH2PO3Et2]
[3]; [21]
  EC50: 67 nM
[5]; [23]
  EC50: 68 nM
[6]; [24]
  EC50: 23 nM
[11]; [25]
  EC50: 29 nM
[7]; [28]
  EC50: 48 nM
[9]; [29]
  EC50: 106 nM

## CCOP(=O)(COc1ccc(CC2C(O)C(O)C(Cc3ccc(OC)cc3)N(Cc3cccnc3)C(=O)N2Cc2cccnc2)cc1)OCC (centres unmarked) [OCH3, m-pyridine, OCH2PO3Et2]
[3]; [21]
  EC50: 1020 nM
[5]; [23]
  EC50: 352 nM
[6]; [24]
  EC50: 106 nM
[7]; [28]
  EC50: 480 nM
[9]; [29]
  EC50: 970 nM

## CCOP(=O)(COc1ccc(CC(NC(=O)OC2COC3OCCC23)C(O)CN(CC(C)C)S(=O)(=O)c2ccc(OC)cc2)cc1)OCc1ccccc1 (centres unmarked) [drawing 608 R1=OEt R2=OBn]
[13]
  EC50: < 50 nM
[2]
  CC50: < 5000 nM

## COc1ccc(S(=O)(=O)N(CC(C)C)CC(O)C(Cc2ccc(OCP(=O)(O)O)cc2)NC(=O)OC2COC3OCCC23)cc1 (centres unmarked) [drawing 608 R1=OH R2=OH]
[13]
  EC50: 500 to 5000 nM
[1]; [30]
  I84V/L90M fold change: − (≦3)
[2]
  CC50: > 50000 nM

## CCOC(=O)C(C)NP(=O)(COc1ccc(CC(NC(=O)OC2COC3OCCC23)C(O)CN(CC(C)C)S(=O)(=O)c2ccc(OC)cc2)cc1)NC(C)C(=O)OCC (centres unmarked) [drawing 612 R1=Ala-Et R2=Ala-Et]
[13]
  EC50: 50 to 500 nM
[1]; [30]
  I84V/L90M fold change: − (≦3)
[2]
  CC50: > 50000 nM

## Nc1n[nH]c2ccc(CN3C(=O)N(Cc4cccc(OCP(=O)(O)O)c4)C(Cc4ccccc4)C(O)C(O)C3Cc3ccccc3)cc12 (centres unmarked) [m-OCH2PO3H2]
[10]; Ki (nM)
  Ki: 0.254 nM
[4]
  IC50: 33 nM
[11]; [31]
  EC50: > 12000 nM
[12]
  IC50: 8.3 nM

## Nc1n[nH]c2ccc(CN3C(=O)N(Cc4cccc(OCP(=O)(O)Oc5ccccc5)c4)C(Cc4ccccc4)C(O)C(O)C3Cc3ccccc3)cc12 (centres unmarked) [m-OCH2PO3HPh]
[10]; Ki (nM), Enzymatic assay
  Ki: 0.644 nM
[4]
  IC50: 65 nM
[11]; [31]
  EC50: 1740 nM
[8]; [32]
  EC50: > 6000 nM
[12]
  IC50: 17 nM

## Nc1n[nH]c2ccc(CN3C(=O)N(Cc4cccc(OCP(=O)(Oc5ccccc5)Oc5ccccc5)c4)C(Cc4ccccc4)C(O)C(O)C3Cc3ccccc3)cc12 (centres unmarked) [m-OCH2PO3Ph2]
[3]; Human immunodeficiency virus 1, MT-4, 48V54V82A, read-out: Cell-based assay (MT-4) EC50/nM 48V54V82A
  EC50: 2180 nM
[10]; Ki (nM), Enzymatic assay
  Ki: 0.543 nM
[4]
  IC50: 42 nM
[5]; Human immunodeficiency virus 1, MT-4, 46I50V, read-out: Cell-based assay (MT-4) EC50/nM 46I50V
  EC50: 3380 nM
[6]; Human immunodeficiency virus 1, MT-4, 30N82I88D, read-out: Cell-based assay (MT-4) EC50/nM 30N82I88D
  EC50: 1540 nM
[11]; [31]
  EC50: 1350 nM
[8]; [32]
  EC50: > 6000 nM
[12]
  IC50: 10 nM

## CCCCOC(=O)C(C)NP(=O)(COc1cccc(CN2C(=O)N(Cc3ccc4[nH]nc(N)c4c3)C(Cc3ccccc3)C(O)C(O)C2Cc2ccccc2)c1)NC(C)C(=O)OCCCC (centres unmarked) [m-bis-Ala-Bu]
[3]; [21]
  EC50: 1850 nM
[10]; read-out: Ki
  Ki: 1.28 nM
[4]; [22]
  IC50: 103 nM
[5]; [23]
  EC50: 1540 nM
[6]; [24]
  EC50: 2360 nM
[11]; [25]
  EC50: 1080 nM
[8]; [26]
  EC50: > 6000 nM
[12]; read-out: WT IC50/nM
  IC50: 18 nM

## CCOC(=O)C(C)NP(=O)(COc1cccc(CN2C(=O)N(Cc3ccc4[nH]nc(N)c4c3)C(Cc3ccccc3)C(O)C(O)C2Cc2ccccc2)c1)NC(C)C(=O)OCC (centres unmarked) [m-bis-Ala-Et]
[10]; read-out: Ki
  Ki: 1.99 nM
[4]; [22]
  IC50: 202 nM
[6]; [24]
  EC50: 1850 nM
[11]; [25]
  EC50: 5620 nM
[8]; [26]
  EC50: > 6000 nM
[12]; read-out: WT IC50/nM
  IC50: 31 nM

## Nc1n[nH]c2ccc(CN3C(=O)N(Cc4ccc(OCP(=O)(O)O)cc4)C(Cc4ccccc4)C(O)C(O)C3Cc3ccccc3)cc12 (centres unmarked) [p-OCH2PO3H2]
[10]; Ki (nM)
  Ki: > 5 nM
[4]
  IC50: 1660 nM
[11]; [31]
  EC50: > 12000 nM
[12]
  IC50: 551 nM

## Nc1n[nH]c2ccc(CN3C(=O)N(Cc4ccc(O)cc4)C(Cc4ccccc4)C(O)C(O)C3Cc3ccccc3)cc12 (centres unmarked) [p-OH]
[3]; [21]
  EC50: 32 nM
[5]; [23]
  EC50: 55 nM
[6]; [24]
  EC50: 79 nM
[7]; [28]
  EC50: 19 nM
[9]; [29]
  EC50: 39 nM
